From patent US20260276636A1, “METHOD FOR SPECIFIC AND RAPID QUANTIFICATION OF THE TOTAL VIABLE BACTERIAL COUNT IN RAW MILK” (National Institute of Metrology, priority 2023, published 2026)

How the values were obtained:
B. subtilis = test: Minimum inhibitory concentration (MIC) assay; assay type: cell-based, Bacillus subtilis; settings: 96-well plate, 37° C., 48 h; ATCC 6633
Protocol: (§1) • 1. Culture of bacterial strains. After the four bacterial strains were activated on a nutrient agar plate, a single colony was picked, inoculated to TSB medium (10 g/L peptone, 3 g/L beef extract powder, and 5 g/L sodium chloride), incubated at 37° C. for 6 h to the mid-logarithmic stage, and then centrifuged at 8000 rpm for 5 min to collect the bacterial cells. The collected bacterial cells were suspended in fresh TSB medium at a bacterial suspension concentration of approximately 10^7 cells/mL. • 2. Antibiotics. […] Antibiotics were purchased from Shanghai Yuanye Biotechnology Co., Ltd. An appropriate amount of antibiotics was weighed and dissolved in DSMO to prepare a stock solution of a cell division inhibitor, which was stored in the dark at −20° C. • 3. Minimum inhibitory concentration (MIC) assay. The above four bacterial suspensions were plated in a 96-well plate, to which antibiotics were added at final concentrations of […], and then incubated at 37° C. for 48 h. Bacterial growth was analyzed using a microplate reader, and the smallest concentration of antibiotics that could inhibit the growth of bacteria was defined as the minimum inhibitory concentration. • 4. Evaluation of inhibitory effect on bacterial division. […] After centrifugation at 8000 rpm, the bacterial cells were collected and resuspended in the PBS buffer, and the changes in the number of bacteria in the sample were analyzed using the forward scatter signals on the flow cytometer. • 5. Detection of bacterial viability. […] SYTO9 labeled all bacteria in green and PI labeled dead bacteria in red. The above labeling system was left at room temperature for 30 min in the dark, washed and centrifuged with PBS twice, and the percentages of viable and dead bacteria were analyzed using a flow cytometer. Measurement and analysis were performed using an Apogee A50 flow cytometer. At an excitation wavelength of 488 nm, a flow rate of 3-25 μL/min and a detection time of 10-100 s, the total number of bacteria was analyzed in the green fluorescence channel, and the number of dead bacteria was analyzed in the red fluorescence channel.

E. coli [1] = test: Minimum inhibitory concentration (MIC) assay; assay type: cell-based, Escherichia coli; settings: 96-well plate, 37° C., 48 h; ATCC 10798
Protocol: as §1

S. aureus = test: Minimum inhibitory concentration (MIC) assay; assay type: cell-based, Staphylococcus aureus; settings: 96-well plate, 37° C., 48 h; ATCC 29213
Protocol: as §1

L. lactis [2] = test: Minimum inhibitory concentration (MIC) assay; assay type: cell-based, Lactococcus lactis; settings: 96-well plate, 37° C., 48 h; ATCC 19257
Protocol: as §1

[3] = tested on: four species of bacteria (B. subtilis, E. coli, S. aureus, L. lactis); test: Evaluation of inhibitory effect on bacterial division (flow cytometry); assay type: cell-based; settings: 1 μg/mL, 2 h of treatment, compared to blank control; FIG. 7
Protocol: (§2) • 1. Culture of bacterial strains. After the four bacterial strains were activated on a nutrient agar plate, a single colony was picked, inoculated to TSB medium (10 g/L peptone, 3 g/L beef extract powder, and 5 g/L sodium chloride), incubated at 37° C. for 6 h to the mid-logarithmic stage, and then centrifuged at 8000 rpm for 5 min to collect the bacterial cells. The collected bacterial cells were suspended in fresh TSB medium at a bacterial suspension concentration of approximately 10^7 cells/mL. • 2. Antibiotics. […] Bacterial growth was analyzed using a microplate reader, and the smallest concentration of antibiotics that could inhibit the growth of bacteria was defined as the minimum inhibitory concentration. • 4. […] After centrifugation at 8000 rpm, the bacterial cells were collected and resuspended in the PBS buffer, and the changes in the number of bacteria in the sample were analyzed using the forward scatter signals on the flow cytometer. • 5. […] The above labeling system was left at room temperature for 30 min in the dark, washed and centrifuged with PBS twice, and the percentages of viable and dead bacteria were analyzed using a flow cytometer. […]

Staphylococcus aureus [4] = settings: 2 h
Protocol: as §2

[5] = tested on: B. subtilis, E. coli, S. aureus, and L. lactis; test: Fluorescence microscopy observation of FADA-labeled bacteria; assay type: cell-based; settings: 300 μM, 37° C., 6 h; FIG. 1
Protocol: (§3) • 1. Staphylococcus aureus (Deposit number: ATCC 29213), Escherichia coli (Deposit number: ATCC 10798), Lactococcus lactis (Deposit number: ATCC 19257), and Bacillus subtilis (Deposit number: ATCC 6633). The four bacterial strains are the dominant bacteria or the important indicator and pathogenic bacteria in raw milk. • 2. […] Labeling method. […] Fluorescence microscopy observation method. […] 10 μL of bacterial suspension was added onto a slide to prepare an observation sample, which was observed using a 100× oil lens and FITC fluorescence channel. Brightfield images and fluorescence field images were recorded separately. • 5. Flow cytometry. […] The sample not incubated with FADA was used as the negative control.

[6] = tested on: four species of bacteria (B. subtilis, E. coli, S. aureus, L. lactis); test: Labeling efficiency by flow cytometry; assay type: cell-based
Protocol: as §3, with “Optimization of labeling conditions.” for “The sample not incubated with FADA was used as the negative control.”

[7] = tested on: Cow-derived fresh Leukocytes; test: Specific labeling in mixed samples, fluorescence microscopy; assay type: cell-based; settings: 500 μM, 37° C., 6 h, mixed with S. aureus; FIG. 6
Protocol: (§4) • 1. Activation of bacterial strain. After Staphylococcus aureus was activated on a nutrient agar plate, a single colony was picked, inoculated to TSB medium (10 g/L peptone, 3 g/L beef extract powder, and 5 g/L sodium chloride), incubated at 37° C. for 6 h to the mid-logarithmic stage, and then centrifuged at 8000 rpm for 5 min to collect the bacterial cells. The collected bacterial cells were suspended in fresh TSB medium at a bacterial suspension concentration of approximately 10^7 cells/mL. • 2.

Saccharomyces cerevisiae = test: as above; assay type: cell-based; settings: 500 μM, 37° C., 6 h, mixed with S. aureus; FIG. 6
Protocol: as §4

Staphylococcus aureus [8] = test: as above; assay type: cell-based; settings: 500 μM, 37° C., 6 h, mixed with yeast or cow leukocytes; FIG. 6
Protocol: as §4

E. coli [9] = test: Fluorescent labeling in presence of bacterial cell division inhibitor (flow cytometry); assay type: cell-based, Escherichia coli; settings: 500 μM, 2 h, with bacterial cell division inhibitor, FIG. 8
From the text: (§5) • 1. Culture of bacterial strains. […] Fluorescent labeling with FADA. […] Fluorescent labeling with FADAA (Amino FADA).

L. lactis [10] = test: as above; assay type: cell-based, Lactococcus lactis; settings: 500 μM, 2 h, with bacterial cell division inhibitor, FIG. 8
From the text: as §5

Compound | Resistance to quinolone antibiotics (MIC), B. subtilis (B. subtilis) | Resistance to quinolone antibiotics (MIC), E. coli (E. coli [1]) | Resistance to quinolone antibiotics (MIC), S. aureus (S. aureus) | Resistance to quinolone antibiotics (MIC), L. lactis (L. lactis [2]) | Inhibition of cell division of the four species of bacteria [3] | bacterial viability after antibiotic treatment (Staphylococcus aureus [4]) | Fluorescent labeling of bacterial cells under fluorescence microscope [5] | labeling efficiency ([6]; 300 μM, 37° C., 6 h, FIG. 2) | labeling efficiency ([6]; 500 μM, 4 h, FIG. 3) | Fluorescent labeling of somatic cells (cow leukocytes) in mixed sample [7] | Fluorescent labeling of yeast in mixed sample (Saccharomyces cerevisiae) | Fluorescent labeling of S. aureus in mixed samples (Staphylococcus aureus [8]) | labeling effect (labeling efficiency) (E. coli [9]) | labeling effect (labeling efficiency) (L. lactis [10])
O=C(O)c1cn(C2CC2)c2cc(N3CCNCC3)c(F)cc2c1=O [Ciprofloxacin, ciprofloxacin] | 1 µg/mL | 0.5 µg/mL | 1 µg/mL | 1 µg/mL | efficient inhibition of cell division | – | – | – | – | – | – | – | – | –
C[C@H]1COc2c(N3CCN(C)CC3)c(F)cc3c(=O)c(C(=O)O)cn1c23 [Levofloxacin, levofloxacin] | 2 µg/mL | <0.25 µg/mL | <0.25 µg/mL | 0.5 µg/mL | – | – | – | – | – | – | – | – | – | –
COc1c(N2C[C@@H]3CCCN[C@@H]3C2)c(F)cc2c(=O)c(C(=O)O)cn(C3CC3)c12 [Moxifloxacin, moxifloxacin] | 8 µg/mL | 1 µg/mL | 4 µg/mL | 2 µg/mL | – | 88.1% | – | – | – | – | – | – | – | –
CCn1cc(C(=O)O)c(=O)c2ccc(C)nc21 [Nalidixic acid, nalidixic acid] | 128 µg/mL | 4 µg/mL | 64 µg/mL | >256 µg/mL | – | – | – | – | – | – | – | – | – | –
Carboxyfluorescein-labeled amino-D-alanine [FADA] | – | – | – | – | – | – | all cells in the field of view were found fluorescently labeled | > 98.5% | more than 98.5% | not labeled | not labeled | fluorescently labeled | 81.6% | 57.1%
